Patent US10577383B2, “Macrocyclic inhibitors of myeloperoxidase” (BRISTOL-MYERS SQUIBB COMPANY, priority 2016, dated 2020)

Columns and labels:
[1] = biological target: T1, myeloperoxidase (Homo sapiens (Human), UniProt P05164); experiment: MPO Peroxidation Assay (Amplex Red Assay); assay type: biochemical; conditions: MPO peroxidation activity, 100 mM KPi (pH 7.4), ten minute preincubation; potency ranges defined in nM
Procedure: MPO Peroxidation Assay (Amplex Red Assay)
MPO peroxidation activity was measured in 100 mM KPi (pH 7.4) by utilizing the non-fluorescent reagent Amplex Red (Invitrogen Cat. #A12222) which can be oxidized to the highly fluorescent resorufin. Amplex Red is oxidized by the peroxidase action of MPO to resorufin. Reactions were carried out in 50 μL total volume by adding a 25 μL mixture of 200 pM myeloperoxidase and 40 nM H2O2 (Sigma #349887) to 100 nL inhibitor in 100% DMSO in a 384 well Perkin Elmer Optiplate. Enzyme and compound were preincubated for ten minutes at room temperature.
After the ten minute preincubation, 25 μL of an Amplex Red mixture containing 200 μM Amplex Red and 10 mM H2O2 was added to the plate. Kinetic determinations were carried out immediately on a Perkin Elmer Envision (15 minute kinetic read, Ex: 535 nm, Em: 590 nm).
(§1) IC50 values were calculated by determining the slope of the linear portion of the kinetic trace (180-540 secs), and using that calculated slope to determine % inhibition occurring at each concentration of inhibitor using the following equation:
(§2) [formula] where A=minimal Y value (activity level of inhibited sample), B=maximal Y value (activity level of uninhibited sample), C=Log IC50, D=Hill Slope, x=concentration of inhibitor. MPO Chlorination Assay (APF Assay) MPO chlorination activity was measured in 100 mM KPi (pH 7.4) by utilizing the non-fluorescent reagent Aminophenyl fluorescein (APF, Invitrogen Cat. #A36003). APF is cleaved by (—OCl) to yield the fluorescent compound fluorescein. Reactions were carried out in 50 μL total volume by adding a 25 μL mixture of 200 pM myeloperoxidase and 120 mM NaCl to 100 nL inhibitor in 100% DMSO in a 384 well, non-binding surface clear bottom plate (Corning #3655). Enzyme, inhibitor, and chloride were preincubated for ten minutes at room temperature.

[2] = biological target: T1, myeloperoxidase; experiment: MPO Chlorination Assay (APF Assay); assay type: biochemical; conditions: MPO chlorination activity, 100 mM KPi (pH 7.4), 120 mM NaCl, ten minute preincubation; potency ranges defined in nM
Procedure: as §2
After the ten minute preincubation, 25 μL of an APF mixture containing […], 120 mM NaCl and 10 μM H2O2 was added to the plate using the internal dispensing system of a Hammatsu FDSS 6000. Kinetic determinations were carried out immediately on the FDSS 6000 (3 minute kinetic read, 1 read every second, ex: 485 nm, em: 535 nm). IC50 values for inhibitors were calculated by taking the slope of the linear portion of the kinetic measurement (20 seconds to 80-120 secs).
as §1
[formula] where A=minimal Y value (activity level of inhibited sample), B=maximal Y value (activity level of uninhibited sample), C=Log IC50, D=Hill Slope, x=concentration of inhibitor. EPX Bromination Assay

T1 sequence (P05164 49-745): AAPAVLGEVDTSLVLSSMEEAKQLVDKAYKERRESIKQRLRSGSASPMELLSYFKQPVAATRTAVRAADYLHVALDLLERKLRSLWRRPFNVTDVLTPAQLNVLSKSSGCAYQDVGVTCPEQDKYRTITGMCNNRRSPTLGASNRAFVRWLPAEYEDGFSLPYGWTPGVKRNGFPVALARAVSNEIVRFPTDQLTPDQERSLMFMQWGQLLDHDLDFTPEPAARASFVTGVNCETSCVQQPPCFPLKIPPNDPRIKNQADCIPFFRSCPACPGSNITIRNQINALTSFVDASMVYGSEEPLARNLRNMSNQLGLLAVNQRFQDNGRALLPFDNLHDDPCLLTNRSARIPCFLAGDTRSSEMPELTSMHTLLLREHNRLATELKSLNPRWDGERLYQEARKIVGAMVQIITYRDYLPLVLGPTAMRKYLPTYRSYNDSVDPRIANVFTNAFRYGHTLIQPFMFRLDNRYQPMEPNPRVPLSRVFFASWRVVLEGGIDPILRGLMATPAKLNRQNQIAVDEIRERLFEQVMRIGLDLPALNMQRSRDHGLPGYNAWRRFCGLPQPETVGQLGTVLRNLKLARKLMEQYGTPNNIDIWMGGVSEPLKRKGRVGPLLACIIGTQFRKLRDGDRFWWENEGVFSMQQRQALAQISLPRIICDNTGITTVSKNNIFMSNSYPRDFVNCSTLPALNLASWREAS

Row | Compound | IC50 [1] [nM] | IC50 [2] [nM]
1 | Nc1cc(C2CCNCCCOc3cccc(c3)Cn3cc2cn3)c2nn[nH]c2n1 (stereo not shown) [Example 17, 7-{14-Oxa-3,4,10-triazatricyclo[13.3.1.1^3,^6]icosa-1(19),4,6(20),15,17-pentaen-7-yl}-3H-[1,2,3]triazolo[4,5-b]pyridin-5-amine] | 1000 to 10000 | 101 to 999
2 | Nc1cc(C2CCN3C[C@H](COc4cccc(c4)Cn4cc2cn4)[C@@H](c2ccccc2)C3)c2nn[nH]c2n1 (stereo partly drawn) [Example 34, 7-[(12S,13R)-12-Phenyl-15-oxa-3,4,10-triazatetracyclo[14.3.1.1^3,^6.1^1^0,^13]docosa-1(20),4,6(22),16,18-pentaen-7-yl]-3H-[1,2,3]triazolo[4,5-b]pyridin-5-amine] | 1000 to 10000 | 101 to 999
3 | Nc1cc(C2CCNCc3ccc(F)c(c3)OCc3cccc(c3)Cn3cc2cn3)c2nn[nH]c2n1 (stereo not shown) [Example 14, 7-{15-Fluoro-17-oxa-3,4,10-triazatetracyclo[17.3.1.1^3,^6.1^12,^1^6]pentacosa-1(23),4,6(25),12(24),13,15,19,21-octaen-7-yl}-3H-[1,2,3]triazolo[4,5-b]pyridin-5-amine] | 1000 to 10000 | 1 to 100
4 | Nc1cc(C2CCNCc3cc(cc(OC(F)(F)F)c3)COc3cccc(c3)Cn3cc2cn3)c2nn[nH]c2n1 (stereo not shown) [Example 23, 7-[14-(Trifluoromethoxy)-18-oxa-3,4,10-triazatetracyclo[17.3.1.1^3,^6.1^12,^1^6]pentacosa-1(23),4,6(25),12,14,16(24),19,21-octaen-7-yl]-3H-[1,2,3]triazolo[4,5-b]pyridin-5-amine] | 1000 to 10000 | 101 to 999
5 | COCCN1CCc2cccc(c2)Oc2cccc(c2)Cn2cc(cn2)C(c2cc(N)nc3[nH]nnc23)CC1 (stereo not shown) [Example 37, 7-[10-(2-Methoxyethyl)-18-oxa-3,4,10-triazatetracyclo[17.3.1.1^3,^6.1^13,^1^7]pentacosa-1(23),4,6(25),13,15,17(24),19,21-octaen-7-yl]-3H-[1,2,3]triazolo[4,5-b]pyridin-5-amine] | 1000 to 10000 | 101 to 999
6 | Nc1cc(C2CCNCC(=O)N(CCc3ccccc3)Cc3cccc(c3)Cn3cc2cn3)c2nn[nH]c2n1 (stereo not shown) [Example 33, 7-{5-Amino-3H-[1,2,3]triazolo[4,5-b]pyridin-7-yl}-13-(2-phenylethyl)-3,4,10,13-tetraazatricyclo[13.3.1.1^3,^6]icosa-1(19),4,6(20),15,17-pentaen-12-one] | 101 to 999 | 1 to 100
7 | Nc1cc(C2CCNCc3ccc(F)c(c3)COc3ccc(F)c(c3)Cn3cc2cn3)c2nn[nH]c2n1 (stereo not shown) [Example 24, 7-{15,22-Difluoro-18-oxa-3,4,10-triazatetracyclo[17.3.1.1^3,^6.1^12,^1^6]pentacosa-1(23),4,6(25),12,14,16(24),19,21-octaen-7-yl}-3H-[1,2,3]triazolo[4,5-b]pyridin-5-amine] | 101 to 999 | 1 to 100
8 | Nc1cc(C2CCNCC(F)(F)c3cccc(c3)Oc3cccc(c3)Cn3cc2cn3)c2nn[nH]c2n1 (stereo not shown) [Example 36, 7-{12,12-Difluoro-18-oxa-3,4,10-triazatetracyclo[17.3.1.1^3,^6.1^13,^1^7]pentacosa-1(23),4,6(25),13,15,17(24),19,21-octaen-7-yl}-3H-[1,2,3]triazolo[4,5-b]pyridin-5-amine] | 1000 to 10000 | 1 to 100
9 | Nc1cc(C2CCNCc3cc(Cl)cc(c3)OCc3cccc(c3)Cn3cc2cn3)c2nn[nH]c2n1 (stereo not shown) [Example 15, 7-{14-Chloro-17-oxa-3,4,10-triazatetracyclo[17.3.1.1^3,^6.1^12,^1^6]pentacosa-1(23),4,6(25),12(24),13,15,19,21-octaen-7-yl}-3H-[1,2,3]triazolo[4,5-b]pyridin-5-amine] | 101 to 999 | 1 to 100
10 | C[C@@H]1Cc2cccc(c2)Oc2cccc(c2)Cn2cc(cn2)C(c2cc(N)nc3[nH]nnc23)CCN1 (stereo partly drawn) [Example 8, 7-[(11R)-11-Methyl-18-oxa-3,4,10-triazatetracyclo[17.3.1.1^3,^6.1^13,^1^7]pentacosa-1(23),4,6(25),13,15,17(24),19,21-octaen-7-yl]-3H-[1,2,3]triazolo[4,5-b]pyridin-5-amine] | 101 to 999 | 1 to 100
11 | NC(=O)CN1CCc2cccc(c2)Oc2cccc(c2)Cn2cc(cn2)C(c2cc(N)nc3[nH]nnc23)CC1 (stereo not shown) [Example 35, 2-(7-{15-Amino-3H-[1,2,3]triazolo[4,5-b]pyridin-7-yl}-18-oxa-3,4,10-triazatetracyclo[17.3.1.1^3,^6.1^13,^17]pentacosa-1(23),4,6(25),13,15,17(24),19,21-octaen-10-yl)acetamide] | 1000 to 10000 | 1000 to 10000

Second part, the molecule after the results:

Row | IC50 [1] [nM] | IC50 [2] [nM] | Compound
12 | 1 to 100 | 1 to 100 | Nc1cc(C2CCNCc3cc(F)cc(c3)OCc3cccc(c3)Cn3cc2cn3)c2nn[nH]c2n1 (stereo not shown) [Example 12, 7-{14-Fluoro-17-oxa-3,4,10-triazatetracyclo[17.3.1.1^3,^6.1^12,^1^6]pentacosa-1(23),4,6(25),12(24),13,15,19,21-octaen-7-yl}-3H-[1,2,3]triazolo[4,5-b]pyridin-5-amine]
13 | 101 to 999 | 1 to 100 | Nc1cc(C2CCNCCc3cccc(c3)-c3cccc(c3)Cn3cc2cn3)c2nn[nH]c2n1 (stereo not shown) [Example 30, 7-{8,9,15-triazatetracyclo[16.3.1.1^2,^6.1^8,^11]tetracosa-1(22),2,4,6(24),9,11(23),18,20-octaen-12-yl}-3H-[1,2,3]triazolo[4,5-b]pyridin-5-amine]
14 | 1 to 100 | 1 to 100 | Nc1cc(C2CCNCc3cccc(c3)OCc3cccc(c3)Cn3cc2cn3)c2nn[nH]c2n1 (stereo not shown) [Example 9, 7-{17-Oxa-3,4,10-triazatetracyclo[17.3.1.1^3,^6.1^12,^1^6]pentacosa-1(23),4,6(25),12,14,16(24),19,21-octaen-7-yl}-3H-[1,2,3]triazolo[4,5-b]pyridin-5-amine]
15 | 101 to 999 | 101 to 999 | Nc1cc(C2CCNCCc3cccc(c3)Oc3cccc(c3)Cn3cc2cn3)c2nn[nH]c2n1 (single isomer, unassigned) [Example 4, 7-{18-oxa-3,4,10-triazatetracyclo[17.3.1.1^3,^6.1^13,^1^7]pentacosa-1(23),4,6(25),13,15,17(24),19,21-octaen-7-yl}-3H-[1,2,3]triazolo[4,5-b]pyridin-5-amine]
16 | 101 to 999 | 1 to 100 | Nc1cc(C2CCNCC3(CCCC3)COc3cccc(c3)Cn3cc2cn3)c2nn[nH]c2n1 (stereo not shown) [Example 22, 7-{14′-Oxa-3′,4′,10′-triazaspiro[cyclopentane-1,12′-tricyclo[13.3.1.1^3,^6]icosane]-1′(19′),4′,6′(20′),15′,17′-pentaen-7′-yl}-3H-[1,2,3]triazolo[4,5-b]pyridin-5-amine]
17 | 1 to 100 | 1 to 100 | Nc1cc(C2CCNC34CCC(c5ccccc5)(CC3)[C@H](C4)Oc3cccc(c3)Cn3cc2cn3)c2nn[nH]c2n1 (stereo partly drawn) [Example 27, 7-[(17S)-18-Phenyl-16-oxa-2,8,9-triazapentacyclo[16.2.2.1^1,^1^7.1^6,^9.1^11,^1^5]pentacosa-6(25),7,11(24),12,14-pentaen-5-yl]-3H-[1,2,3]triazolo[4,5-b]pyridin-5-amine]
18 | 1 to 100 | 1 to 100 | Nc1cc(C2CCNC34CCC(c5ccccc5)(CC3)[C@H](C4)Oc3cccc(c3)CCn3cc2cn3)c2nn[nH]c2n1 (stereo partly drawn) [Example 29, 7-[(18S)-19-Phenyl-17-oxa-2,8,9-triazapentacyclo[17.2.2.1^1,^1^8.1^6,^9.1^12,^1^6]hexacosa-6(26),7,12(25),13,15-pentaen-5-yl]-3H-[1,2,3]triazolo[4,5-b]pyridin-5-amine]
19 | 1 to 100 | 1 to 100 | C[C@H]1Cc2cccc(c2)Oc2cccc(c2)Cn2cc(cn2)C(c2cc(N)nc3[nH]nnc23)CCN1 (stereo partly drawn) [Example 7, 7-[(11S)-11-Methyl-18-oxa-3,4,10-triazatetracyclo[17.3.1.1^3,^6.1^13,^1^7]pentacosa-1(23),4,6(25),13,15,17(24),19,21-octaen-7-yl]-3H-[1,2,3]triazolo[4,5-b]pyridin-5-amine]
20 | 1 to 100 | 1 to 100 | Nc1cc(C2CCNCCc3cccc(c3)Oc3cccc(c3)Cn3cc2cn3)c2nn[nH]c2n1 (stereo not shown) [Example 3, 7-{18-oxa-3,4,10-triazatetracyclo[17.3.1.1^3,^6.1^13,^1^7]pentacosa-1(23),4,6(25),13,15,17(24),19,21-octaen-7-yl}-3H-[1,2,3]triazolo[4,5-b]pyridin-5-amine]
